# Experiment: Anticancer human tumor 997537-175-T-J1-PDC patient-derived colon adenocarcinoma cell line growth inhibition [POLQ]
# Conditions: 997537-175-T-J1-PDC complex spheroid viability, combination with POLQ inhibitors; second compound 3.16 µM; first compound 0.1 µM; active compounds read low
# Summary of the method: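 PDC + HUVEC + MSC complex spheroids; POLQ inhibitors ± partner drugs; top conc. at/near clinical Cmax, else 10 microM (SN-38 1 microM), half-log dilutions; 37 degrees C, 5% CO2.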
# 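Further: luminescence signal used as a surrogate for viable cells; spheroids exposed to drugs for seven days before readout.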
row,SMILES,"viability, T/C [%]"
1,CC1COCCN1c1cc(C2(S(C)(=N)=O)CC2)nc(-c2ccnc3[nH]ccc23)n1 (stereo unspecified) + Nc1ccc(C#CCN(C(=O)Cc2ncc(C(F)(F)F)cc2C(F)(F)F)c2ccc(F)cc2)nn1,91.2
2,CCCS(=O)(=O)Nc1ccc(F)c(C(=O)c2c[nH]c3ncc(-c4ccc(Cl)cc4)cc23)c1F + Cc1cccc(N(C)C(=O)C2C(O)CCN2c2nc(C)cc(C(F)(F)F)c2C#N)c1,77
3,CCc1cc2c(N3CCc4c(cc(Cn5ccnc5)cc4-c4cn(C)nc4C(F)(F)F)C3=O)ccnc2c(OC)n1 + Cc1cccc(N(C)C(=O)C2C(O)CCN2c2nc(C)cc(C(F)(F)F)c2C#N)c1,86.9

# Same assay, conditions: 997537-175-T-J1-PDC complex spheroid viability, combination with POLQ inhibitors; second compound 3.16 µM; first compound 0.316 µM; active compounds read low
row,SMILES,"viability, T/C [%]"
1,Nc1ccn(C2OC(CO)C(O)C2(F)F)c(=O)n1 (stereo unspecified) + Cc1cccc(N(C)C(=O)C2C(O)CCN2c2nc(C)cc(C(F)(F)F)c2C#N)c1,90.4
2,CC1COCCN1c1cc(-c2ccnn2C)c2ccnc(-c3ccn[nH]3)c2n1 (stereo unspecified) + COC1C(OC(N)=O)C(O)C(Oc2ccc3c(O)c(NC(=O)c4ccc(O)c(CC=C(C)C)c4)c(=O)oc3c2C)OC1(C)C,66.1
3,CC1COCCN1c1cc(C2(S(C)(=N)=O)CC2)nc(-c2ccnc3[nH]ccc23)n1 (stereo unspecified) + Nc1ccc(C#CCN(C(=O)Cc2ncc(C(F)(F)F)cc2C(F)(F)F)c2ccc(F)cc2)nn1,107
4,CCCS(=O)(=O)Nc1ccc(F)c(C(=O)c2c[nH]c3ncc(-c4ccc(Cl)cc4)cc23)c1F + Cc1cccc(N(C)C(=O)C2C(O)CCN2c2nc(C)cc(C(F)(F)F)c2C#N)c1,77.7
5,CCc1cc2c(N3CCc4c(cc(Cn5ccnc5)cc4-c4cn(C)nc4C(F)(F)F)C3=O)ccnc2c(OC)n1 + Cc1cccc(N(C)C(=O)C2C(O)CCN2c2nc(C)cc(C(F)(F)F)c2C#N)c1,96.3

# Same assay, conditions: 997537-175-T-J1-PDC complex spheroid viability, combination with POLQ inhibitors; second compound 3.16 µM; first compound 1 µM; active compounds read low
row,SMILES,"viability, T/C [%]"
1,Nc1ccn(C2OC(CO)C(O)C2(F)F)c(=O)n1 (stereo unspecified) + Cc1cccc(N(C)C(=O)C2C(O)CCN2c2nc(C)cc(C(F)(F)F)c2C#N)c1,92.5
2,CC1COCCN1c1cc(-c2ccnn2C)c2ccnc(-c3ccn[nH]3)c2n1 (stereo unspecified) + COC1C(OC(N)=O)C(O)C(Oc2ccc3c(O)c(NC(=O)c4ccc(O)c(CC=C(C)C)c4)c(=O)oc3c2C)OC1(C)C,31.5
3,CC1COCCN1c1cc(C2(S(C)(=N)=O)CC2)nc(-c2ccnc3[nH]ccc23)n1 (stereo unspecified) + Nc1ccc(C#CCN(C(=O)Cc2ncc(C(F)(F)F)cc2C(F)(F)F)c2ccc(F)cc2)nn1,92.4
4,CCCS(=O)(=O)Nc1ccc(F)c(C(=O)c2c[nH]c3ncc(-c4ccc(Cl)cc4)cc23)c1F + Cc1cccc(N(C)C(=O)C2C(O)CCN2c2nc(C)cc(C(F)(F)F)c2C#N)c1,68
5,CCc1cc2c(N3CCc4c(cc(Cn5ccnc5)cc4-c4cn(C)nc4C(F)(F)F)C3=O)ccnc2c(OC)n1 + Cc1cccc(N(C)C(=O)C2C(O)CCN2c2nc(C)cc(C(F)(F)F)c2C#N)c1,81.5

# Same assay, conditions: 997537-175-T-J1-PDC complex spheroid viability, combination with POLQ inhibitors; second compound 3.16 µM; first compound 3.16 µM; active compounds read low
row,SMILES,"viability, T/C [%]"
1,Nc1ccn(C2OC(CO)C(O)C2(F)F)c(=O)n1 (stereo unspecified) + Cc1cccc(N(C)C(=O)C2C(O)CCN2c2nc(C)cc(C(F)(F)F)c2C#N)c1,86.1
2,CC1COCCN1c1cc(-c2ccnn2C)c2ccnc(-c3ccn[nH]3)c2n1 (stereo unspecified) + COC1C(OC(N)=O)C(O)C(Oc2ccc3c(O)c(NC(=O)c4ccc(O)c(CC=C(C)C)c4)c(=O)oc3c2C)OC1(C)C,27.4
3,CC1COCCN1c1cc(C2(S(C)(=N)=O)CC2)nc(-c2ccnc3[nH]ccc23)n1 (stereo unspecified) + Nc1ccc(C#CCN(C(=O)Cc2ncc(C(F)(F)F)cc2C(F)(F)F)c2ccc(F)cc2)nn1,66.9
4,CCCS(=O)(=O)Nc1ccc(F)c(C(=O)c2c[nH]c3ncc(-c4ccc(Cl)cc4)cc23)c1F + Cc1cccc(N(C)C(=O)C2C(O)CCN2c2nc(C)cc(C(F)(F)F)c2C#N)c1,75.1
5,CCc1cc2c(N3CCc4c(cc(Cn5ccnc5)cc4-c4cn(C)nc4C(F)(F)F)C3=O)ccnc2c(OC)n1 + Cc1cccc(N(C)C(=O)C2C(O)CCN2c2nc(C)cc(C(F)(F)F)c2C#N)c1,81.7

# Same assay, conditions: 997537-175-T-J1-PDC complex spheroid viability, combination with POLQ inhibitors; second compound 3.16 µM; first compound 10 µM; active compounds read low
row,SMILES,"viability, T/C [%]"
1,Nc1ccn(C2OC(CO)C(O)C2(F)F)c(=O)n1 (stereo unspecified) + Cc1cccc(N(C)C(=O)C2C(O)CCN2c2nc(C)cc(C(F)(F)F)c2C#N)c1,70.7
2,CC1COCCN1c1cc(-c2ccnn2C)c2ccnc(-c3ccn[nH]3)c2n1 (stereo unspecified) + COC1C(OC(N)=O)C(O)C(Oc2ccc3c(O)c(NC(=O)c4ccc(O)c(CC=C(C)C)c4)c(=O)oc3c2C)OC1(C)C,64.9
3,CC1COCCN1c1cc(C2(S(C)(=N)=O)CC2)nc(-c2ccnc3[nH]ccc23)n1 (stereo unspecified) + Nc1ccc(C#CCN(C(=O)Cc2ncc(C(F)(F)F)cc2C(F)(F)F)c2ccc(F)cc2)nn1,40
4,CCCS(=O)(=O)Nc1ccc(F)c(C(=O)c2c[nH]c3ncc(-c4ccc(Cl)cc4)cc23)c1F + Cc1cccc(N(C)C(=O)C2C(O)CCN2c2nc(C)cc(C(F)(F)F)c2C#N)c1,36.7
5,CCc1cc2c(N3CCc4c(cc(Cn5ccnc5)cc4-c4cn(C)nc4C(F)(F)F)C3=O)ccnc2c(OC)n1 + Cc1cccc(N(C)C(=O)C2C(O)CCN2c2nc(C)cc(C(F)(F)F)c2C#N)c1,70.1

# Same assay, conditions: 997537-175-T-J1-PDC complex spheroid viability, combination with POLQ inhibitors; second compound 10 µM; first compound 0.0316 µM; active compounds read low
row,SMILES,"viability, T/C [%]"
1,Nc1ccn(C2OC(CO)C(O)C2(F)F)c(=O)n1 (stereo unspecified) + Cc1cccc(N(C)C(=O)C2C(O)CCN2c2nc(C)cc(C(F)(F)F)c2C#N)c1,94.8
2,CC1COCCN1c1cc(-c2ccnn2C)c2ccnc(-c3ccn[nH]3)c2n1 (stereo unspecified) + COC1C(OC(N)=O)C(O)C(Oc2ccc3c(O)c(NC(=O)c4ccc(O)c(CC=C(C)C)c4)c(=O)oc3c2C)OC1(C)C,87
3,CC1COCCN1c1cc(C2(S(C)(=N)=O)CC2)nc(-c2ccnc3[nH]ccc23)n1 (stereo unspecified) + Nc1ccc(C#CCN(C(=O)Cc2ncc(C(F)(F)F)cc2C(F)(F)F)c2ccc(F)cc2)nn1,94.9

# Source: PubChem BioAssay AID1963825 (Molecular Pharmacology Branch, DTP, NCI, 2024)
